Reference: patent US9314020B2, “Microbicidal composition” (Dow Global Technologies LLC, priority 2012, dated 2016)

How the values were obtained:
[1] = test system: Desulfovibrio longus ATCC 51456; assay: Biocidal efficacy against anaerobic bacteria (2 h kill in deoxygenated salt solution); assay type: cell-based
Experimental: (§1) The synergism of the biocides combination of the present invention was determined using the method described by Kull, F. C, et. al. in Applied Microbiology 9:538-541 (1961).
(§2) The formula to calculate the synergistic index (SI) is Qa/QA+Qb/QB=SI where
(§3) QA=concentration of compound A in ppm, acting alone produced an end point or if end point could not be established, the highest concentration tested will be used as the end point for the calculation and the SI will be recorded in “less than or <” values
(§4) Qa=concentration of compound A in ppm, in the mixture, which produced an end point
(§5) QB=concentration of compound B in ppm, acting alone produced an end point or if end point could not be established, the highest concentration tested will be used as the end point for the calculation and the SI will be recorded in “less than or <” values
Inside an anaerobic chamber (BACTRON anaerobic chamber), a deoxygenated sterile salt solution (3.1183 g of NaCl, 1.3082 mg of NaHCO3, 47.70 mg of KCl, 72.00 mg of CaCl2, 54.49 mg of MgSO4, 172.28 mg of Na2SO4, 43.92 mg of Na2CO3 in 1 L water) was inoculated with Desulfovibrio longus ATCC 51456, a sulfate-reducing bacterium, to a final bacterial concentration of 10^7 to 10^8 CFU/mL. Aliquots of this cell suspension were then treated with DBMAL, DTEA (in the hydrochloride form), and DBMAL/DTEA blends, at selected active concentrations. After the treated cell suspensions were incubated at 35° C. for 2 hours, the biocidal efficacy was determined by minimum tested biocide concentration for 99.999% bacteria kill in the aliquots. Table 1 summarizes the efficacy of each biocide and their blends, and the Synergy Index (SI) of each combination.
(§6) In order to differentiate DBMAL/DTEA combinations from DTEA/DBNPA combinations, DTEA/DBNPA combinations were also tested using the same test procedures and conditions described above.

[2] = test system: Pseudomonas aeruginosa ATCC 10145, Aeromonas hydrophila ATCC 7965, and Myroides odoratus (Flavobacterium odoratum) NCIMB 13294; assay: Efficacy against aerobic bacteria in synthetic cooling water (4 h kill, TSB/Resazurin readout); assay type: cell-based; conditions: for Concentration (ppm a.i.) for complete bacterial kill in 4 hours: DBMAL: DBMAL alone or DBMAL part of DTEA/DBMAL blend; for Concentration (ppm a.i.) for complete bacterial kill in 4 hours: DBNPA: DBNPA alone or DBNPA part of DTEA/DBNPA blend
Experimental: as §1, §2, §3, §4, §5
Synthetic cooling water was generated as disclosed in Appendix A and dispensed into three 96-well plates. A stock solution of DBMAL from 12% liquid active (or DBNPA from a solid formulation as appropriate) and a stock solution of DTEA (in the hydrochloride form) derived from a liquid stock stored under anaerobic conditions were generated in the synthetic cooling water. In one 96-well biocide block, the stock solution of DBMAL (or DBNPA as listed) was added to the first row of the master block and diluted 1:1 by row until the testing range has been prepared. In a second 96-well biocide block, the stock solution of DTEA was added to the first column of the master block and diluted 1:1 by column until the testing range has been prepared. Biocides from each DBMAL row in the DBMAL biocide master block were added to the matching experimental row in a 3rd 96 well plate filled with synthetic cooling water. This was repeated, adding biocides from each DTEA column from the DTEA biocide master block to the matching experimental column Working quickly, the following organisms were added from a cell-suspension with an OD600 of ˜0.4 (approximately 1×10^8 cfu/ml) to final concentration of 1×10^7 cfu/ml in the first of the 96 well plates: Pseudomonas aeruginosa ATCC 10145, Aeromonas hydrophila ATCC 7965, and Myroides odoratus (Flavobacterium odoratum) NCIMB 13294. The resulting bacterial final concentration was 3×10^7 cfu/ml in the experimental 96 well block.
The experimental block was placed at 35° C., with the time of exposure started once the last well had been inoculated. At 4 hours, the experimental block was removed from the incubator, and 20 μl of treated cells from each row of the experimental block and were added to the first row of a 96-well plate pre-filled with TSB/Resazurin dye. Each sample from the first row of the TSB/Resazurin dye plate was diluted 1:10 six times by serial dilution moving down the plate by row. The inoculated TSB/Resazurin dye 96-well plate was placed at 35° C. for 24 hours, following that time data interpretation occurred. Color change from purple to pink indicates microbial metabolic activity and designates lack of cell death. Those wells were counted as “growth”. Failure to have color change from purple to pink indicates a lack of microbial metabolic activity and designates cell death. These were counted as “no growth”. […] The efficacy and synergy index of each combo were also included.
as §6

## NC(=O)C(Br)(Br)C(N)=O [DBMAL alone, 2,2-dibromomalonamide]
[1]; DBMAL alone or DBMAL part of DTEA/DBMAL blend, 35° C., 2 hours, Table 1
  Concentration (ppm a.i.) for more than 99.999% bacterial kill in 2 hours: DBMAL: 100.00 ppm a.i.
[2]; experiment 1
  Concentration (ppm a.i.) for complete bacterial kill in 4 hours: DBMAL: 25.00 ppm a.i.
[2]; experiment 2
  Concentration (ppm a.i.) for complete bacterial kill in 4 hours: DBMAL: 25.00 ppm a.i.
[2]; experiment 3
  Concentration (ppm a.i.) for complete bacterial kill in 4 hours: DBMAL: 25.00 ppm a.i.
[2]; experiment 4
  Concentration (ppm a.i.) for complete bacterial kill in 4 hours: DBMAL: 50.00 ppm a.i.
[2]; DTEA/DBMAL blends, experiment 3
  Synergy Index: 1.00

## N#CC(Br)(Br)C(N)=O [DBNPA alone]
[1]; DBNPA alone or DBNPA part of DTEA/DBNPA blend, Table 6
  Concentration (ppm a.i.) for more than 99.999% bacterial kill in 2 hours: DBNPA: 25.00 ppm a.i.
[2]; experiment 5
  Concentration (ppm a.i.) for complete bacterial kill in 4 hours: DBNPA: 6.25 ppm a.i.
[2]; experiment 6
  Concentration (ppm a.i.) for complete bacterial kill in 4 hours: DBNPA: 6.25 ppm a.i.
[2]; experiment 7
  Concentration (ppm a.i.) for complete bacterial kill in 4 hours: DBNPA: 6.25 ppm a.i.

## CCCCCCCCCCSCCN.Cl [DTEA alone, 2-(decylthio)ethanamine hydrochloride]
[1]; DTEA alone or DTEA part of DTEA/DBMAL blend, 35° C., 2 hours, Table 1
  Concentration (ppm a.i.) for more than 99.999% bacterial kill in 2 hours: DTEA: 25.00 ppm a.i.
[1]; DTEA alone or DTEA part of DTEA/DBNPA blend, Table 6
  Concentration (ppm a.i.) for more than 99.999% bacterial kill in 2 hours: DTEA: 25.00 ppm a.i.
[2]; DTEA alone or DTEA part of DTEA/DBMAL blend, experiment 1
  Concentration (ppm a.i.) for complete bacterial kill in 4 hours: DTEA: 12.50 ppm a.i.
[2]; DTEA alone or DTEA part of DTEA/DBMAL blend, experiment 2
  Concentration (ppm a.i.) for complete bacterial kill in 4 hours: DTEA: 25.00 ppm a.i.
[2]; DTEA alone or DTEA part of DTEA/DBMAL blend, experiment 3
  Concentration (ppm a.i.) for complete bacterial kill in 4 hours: DTEA: 25.00 ppm a.i.
[2]; DTEA alone or DTEA part of DTEA/DBMAL blend, experiment 4
  Concentration (ppm a.i.) for complete bacterial kill in 4 hours: DTEA: 100.00 ppm a.i.
[2]; DTEA alone or DTEA part of DTEA/DBNPA blend, experiment 5
  Concentration (ppm a.i.) for complete bacterial kill in 4 hours: DTEA: 50.00 ppm a.i.
[2]; DTEA alone or DTEA part of DTEA/DBNPA blend, experiment 6
  Concentration (ppm a.i.) for complete bacterial kill in 4 hours: DTEA: 100.00 ppm a.i.
[2]; DTEA alone or DTEA part of DTEA/DBNPA blend, experiment 7
  Concentration (ppm a.i.) for complete bacterial kill in 4 hours: DTEA: 50.00 ppm a.i.
